Reference: patent US20090319044A1, “Methods and Compositions for Improving the Incorporation of Orthopaedic and Orthodontic Implants” (priority 2006, published 2009)

Tests used:
MC3T3 cells = test: Cytokine gene expression after A23187 treatment (Quantitative-RT PCR); format: cell-based; conditions: 1 to 6 hours after stimulation, relative to controls
Protocol: Wear particles and calcium signaling induce cytokine expression in macrophages and osteoblasts. Cytokine gene expression was measured following A23187 treatment in MC3T3 cells by Quantitative-RT PCR. RNA was isolated from the cells using an RNeasy Mini Kit (Qiagen, Valencia, Calif.), and Quantitative-RT PCR was performed using a SYBR Green master mix (Roche, Ind.).

[1] = system: RAW 264.7 mouse macrophage-like cells (osteoclast precursors); test: Cell death assay (annexin V-FITC / propidium iodide flow cytometry); format: cell-based; conditions: 50 μM zoledronate, 24 hours
Protocol: MC3T3 cells, which are well-established mouse calvarial cells of osteoblastic lineage, and RAW 264.7 mouse macrophage-like cells, which are well-known to form osteoclasts, were purchased from the American Type Culture Collection and Tissue (Manassas, Va.). MC3T3 and RAW 264.7 cells were grown in Dulbecco's Modified Eagle Medium supplemented with 10% fetal bovine serum, 100 μ/mL penicillin, […] streptomycin, and 0.1% fungizone (amphotericin B). The cells were kept at 37° C. in a humidified atmosphere of 5% CO2 and 95% air.
Cell number was measured, and the cells were centrifuged and resuspended in binding buffer (A.G. Scientific, San Diego, Calif.) to a final cell density of 5×10^5 cells/mL. […] of annexin V-FITC (A.G. Scientific, San Diego, Calif.) was added to […] of cell suspension and incubated for 10 minutes. The cells were centrifuged, washed with PBS and resuspended again in […] of binding buffer. […] of 20 mg/mL propidium iodide (A.G. Scientific, San Diego, Calif.) was added to the cell suspension, and flow cytometry was performed using a FACS Calibur (Becton Dickson, Franklin Lakes, N.J.). Monoparametric cytograms of annexin V-FITC fluorescence (FL1) versus number of events were created using the CellQuest program gating for living cells and excluding dead cells on the basis of their propidium iodide uptake.

[2] = system: rodent osteolysis model (UHMWPE wear debris, femur); test: First in vivo study: Faxitron and micro-CT imaging of osteolysis around implants; set-up: species or system rat; conditions: 24 weeks, vs HA-coated control
Excerpt: (§1) More particularly, sterile ultrahigh molecular weight polyethylene (UHMWPE) wear debris particles (0.5 cc, 0.1-3 micron particle size) were introduced into the intramedullary cavity of bilateral femurs of 8 rats, which served as the control group in this example. The particles were introduced after reaming the femurs with an 18 gauge needle at the knee joint. Sterile wear debris particles were used in this example to stimulate a wear debris reaction and promote osteolysis. Hydroxyapatite-coated plastic pins and hydroxyapatite-coated titanium pins (1.5 mm×20 mm, Stryker, Kalamazoo, Mich.) were then inserted into the intramedullary canal of the right femur and left femur, respectively.
(§2) The test group, which consisted of 8 rates, also had 0.5 cc of sterile UHMWPE wear debris particles introduced into the femoral intramedullary canal after reaming with an 18 gauge needle at the knee joint.
The rats of the test and control groups were sacrificed at 24 weeks following insertion of the pins and the femurs were retrieved. Faxitron radiographs (Faxitron, Wheeling, Ill.) of the femurs taken from the test and control rats were obtained. […] The femurs with plastic pin implants (the right femurs) were imaged by micro-CT (Stratec XCT-3000, Stratec Medizintechnik GmbH, Pforzheim, Germany).

[3] = system: rodent osteolysis model (UHMWPE wear debris, femur); test: First in vivo study: pull-out strength testing of titanium pins; set-up: species or system rat; conditions: 24 weeks
Excerpt: as §1, §2
Incorporation of the implants by the host bone was evaluated by “pull-out strength testing” of the titanium pins (left femurs) (MTS 858 Bionix, MTS Systems Corporation, Minneapolis, Minn.). Such “pull-out strength testing” measures the amount of force (i.e., pull force) that must be applied to displace (or remove) the implant from the bone.

[4] = system: polyethylene particle-induced osteolysis rodent femur model; test: Second in vivo study: dual energy X-ray absorptiometry (DXA); set-up: species or system Sprague-Dawley rats; bone area (DXA): unit not given here; conditions: HA-coated nail soaked in 50 μM zoledronate, 6 weeks and 6 months pooled
Excerpt: (§3) Experimental Design and Surgical Procedure. In this example, a polyethylene particle-induced osteolysis rodent femur model was used to examine the advantages of using a HA-zoledronate composite on the implant surface for osseous integration and implant stability in the presence of UHMWPE particles. Two critical parameters were examined, namely, peri-implant bone quality (osteolysis) and osseointegration (implant stability).
All procedures involving animals were approved by the Institutional Animal Care and Use Committee in accordance with the Association for the Assessment and Accreditation of Laboratory Animal Care guidelines (Columbia University Animal Proctocol AC-AAM5306). In this example, a rodent femur intramedullary nailing model was used with UHMWPE wear debris particles instilled into the intramedullary canal after reaming the femur to stimulate a wear debris reaction. Thirty-two six-month-old adult male Sprague-Dawley rats (weight, 400-500 gm) were purchased (Charles Laboratory, Cambridge, Mass.).
(§4) The 32 rats were divided into two study groups, each composed of 16 rats. Sixteen randomly selected rats served as a control group, which received HA-coated nails. […] Eight rats in each group were sacrificed at 6 weeks following the intramedullary nailing of HA-coated implants and another 8 rats from each group were sacrificed 6 months following the surgery.
After induction of general anesthesia using ketamine (60 mg/kg) and xylazine (5 mg/kg), hair over the knee was removed with a clipper. Right and left knee regions were prepared with 70% alcohol and 1% Betadine solution. A one centimeter longitudinal skin incision was made over the anterior aspect of the distal femur. […]
(§5) In the control group, a radiolucent UHMWPE intramedullary nail, which was coated with HA, was implanted into the right distal femur in a retrograde manner, while a HA-coated titanium intramedullary nail was implanted into the left distal femur. […] Activity level, food intake, the condition of the surgical wound, and clinical signs of infection were monitored daily. […]

[5] = system: polyethylene particle-induced osteolysis rodent femur model; test: Second in vivo study: micro-CT periprosthetic bone area; set-up: species or system Sprague-Dawley rats; conditions: HA-coated UHMWPE nail soaked in 50 μM zoledronate; right femora; times pooled; p<0.0001 vs control
Excerpt: as §3
as §4, with “surgery. […]” for “surgery.”
as §5
Micro-computed Tomography (micro-CT). The right femura with UHMWPE pins were imaged using a quantitative CT (Stratec XCT-3000), running the XCT Series software, version 5.21 (Stratec Medizintechnik GmbH, Pforzheim, Germany). […]

[6] = system: polyethylene particle-induced osteolysis rodent femur model; test: Second in vivo study: biomechanical pull-out testing; set-up: species or system Sprague-Dawley rats
Excerpt: as §3, §4
After induction of general anesthesia using ketamine (60 mg/kg) and xylazine (5 mg/kg), hair over the knee was removed with a clipper. Right and left knee regions were prepared with 70% alcohol and 1% Betadine solution. A one centimeter longitudinal skin incision was made over the anterior aspect of the distal femur. A medial parapatellar approach was made to expose the intercondylar notch with the knee in flexion. An entry hole was made with a 18-gauge needle. The distal rat femora were reamed with an 18-gauge needle, and then Ceridust® UHMWPE particles (0.1 mL of 50 vol. %; 0.1 to 3 micron in size; Clariant GmbH, Germany) were introduced into the intradmedullary canal prior to implantation.
In the control group, a radiolucent UHMWPE intramedullary nail, which was coated with HA, was implanted into the right distal femur in a retrograde manner, while a HA-coated titanium intramedullary nail was implanted into the left distal femur. The joint capsule was repaired using a 2-0 Vicryl® suture (Johnson & Johnson, New Brunswick, N.J.). The skin was repaired with metal staples. Rats were allowed weight bearing as tolerated in their cages, while subcutaneous injections of buprenorphine (0.05 mg/kg) were given once a day for two post-operative days. Activity level, food intake, the condition of the surgical wound, and clinical signs of infection were monitored daily.
The purpose of using the UHMWPE nail was to minimize imaging artifacts inherent in metal implants for a more accurate analysis of dual energy x-ray absorptiometry (DXA) and microcomputed tomography (micro-CT) analyses, which are describe below. The metallic nail was used for biomechanical testing. The intramedullary nails, 1.4 mm in diameter and 20 mm in length, were custom-made for this study (Stryker, Mahwah, N.J.).
Biomechanical Testing. The left femora of both the 6-week and 6-month control and treatment groups were subjected to biomechanical testing following the imaging studies described herein. […]

[7] = HA-coated titanium nail soaked in 50 μM zoledronate, left femora, times pooled, p<0.0001 vs control

Molecule	COX-2 expression (MC3T3 cells)	TNF-alpha expression (MC3T3 cells)	apoptosis in RAW cells [1]	osteolysis around plastic implants (micro-CT) ([2]; HA-coated plastic pins presoaked in zoledronate 15 minutes, right femur)	osteolysis around titanium implant (Faxitron radiographs) ([2]; HA-coated titanium pins presoaked in zoledronate 15 minutes, left femur)	peak force to extract the titanium pin implants ([3]; zoledronate-treated HA-coated titanium pins vs control, p<0.0001)	pullout energy ([3]; zoledronate-treated HA-coated titanium pins, p=0.0085 vs control)	bone mineral content (DXA) ([4]; p<0.0001 vs control)	bone mineral density (DXA) ([4]; p<0.0001 vs control)	bone area (DXA) ([4]; p=0.1222 vs control)	amount of bone mass in the periprosthetic area (micro-CT) [5]	increase in total energy to pull-out over control ([6]; 6-month group)	increase in total energy to pull-out over control ([6]; 6-weeks group)	average peak pullout force [6, 7]	energy required to completely pull the pin out of the bone [6, 7]
CNc1ccc2oc(C[C@H]3O[C@@]4(CC[C@H]3C)O[C@H]([C@H](C)C(=O)c3ccc[nH]3)[C@H](C)C[C@H]4C)nc2c1C(=O)O [A23187]	increase	increase	–	–	–	–	–	–	–	–	–	–	–	–	–
zoledronate	–	–	100%	not around such implants in the test rats	not around the titanium implants in the test rats	statistically higher	5.71±3.42 N-m	0.417 ± 0.064 g	0.328±0.036 g/cm^2	1.265±0.081	2.388±0.960 mm^2	170.7%	542.8%	241.0±95.1 N	521.6±293.8 N-mm
